The text below walks through data of article PMC10891534, “The Staphylococcus aureus ArlS Kinase Inhibitor Tilmicosin Has Potent Anti-Biofilm Activity in Both Static and Flow Conditions” (Microorganisms, 2024).

A word on the IC50: it is the concentration at which inhibition is half-maximal. Higher therefore signals a need for much substance.

This test has as its target ArlS histidine kinase (ArlSHK) (Staphylococcus aureus, UniProt Q9KJN3). As to the kind of experiment: Kinase-Glo luminescent ATPase/kinase assay with purified ArlSHK, […] ATP, dose-response. The class given is biochemical. (In general: In Kinase-Glo more light means more ATP remaining.)

Sequence of ArlS histidine kinase (ArlSHK) (Q9KJN3 239-451): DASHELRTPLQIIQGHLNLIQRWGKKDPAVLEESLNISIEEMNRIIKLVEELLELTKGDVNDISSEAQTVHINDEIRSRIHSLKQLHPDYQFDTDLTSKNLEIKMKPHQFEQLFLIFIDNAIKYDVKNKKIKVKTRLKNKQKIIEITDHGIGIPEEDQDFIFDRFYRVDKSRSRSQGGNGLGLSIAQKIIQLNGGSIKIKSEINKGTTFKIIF

Take `CC[C@H]1OC(=O)C[C@@H](O)[C@H](C)[C@@H](O[C@@H]2O[C@H](C)[C@@H](O)[C@H](N(C)C)[C@H]2O)[C@@H](CCN2C[C@H](C)C[C@H](C)C2)C[C@@H](C)C(=O)/C=C/C(C)=C/[C@@H]1CO[C@@H]1O[C@H](C)[C@@H](O)[C@@H](OC)[C@H]1OC` [tilmicosin]: the IC50 was 1090 nM.
